# Test results reported in PubChem BioAssay AID1963829 (Molecular Pharmacology Branch, DTP, NCI, 2024).
# Tested on: 935938-334-R-J1-PDC complex spheroid viability
# Experiment: Anticancer human tumor 935938-334-R-J1-PDC patient-derived small intestine adenocarcinoma cell line growth inhibition [POLQ]
# Details: for IC50: curve of first compound; for viability, T/C: stronger effect = lower value
# How it was run: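 Patient-derived tumour cells were co-cultured with HUVEC and mesenchymal stem cells as multicellular spheroids at 37 °C. They were treated with POLQ inhibitors (novobiocin, ART-558, RP6685) alone or combined with other agents. Top concentrations were at or near clinical Cmax (otherwise 10 microM; SN-38 at 1 microM), decreasing in half-log steps.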
# [1] = second compound 0.0316 µM, first compound 0.0316 µM
# [2] = second compound 0.0316 µM, first compound 0.1 µM
# [3] = second compound 0.0316 µM, first compound 0.316 µM
# [4] = second compound 0.0316 µM, first compound 1 µM
# [5] = second compound 0.0316 µM, first compound 3.16 µM
# [6] = second compound 0.0316 µM, first compound 10 µM
# [7] = second compound 0.1 µM, first compound 0.0316 µM
# [8] = second compound 0.1 µM, first compound 0.1 µM
# [9] = second compound 0.1 µM, first compound 0.316 µM
# [10] = second compound 0.1 µM, first compound 1 µM
# [11] = second compound 0.1 µM, first compound 3.16 µM
# [12] = second compound 0.1 µM, first compound 10 µM
# [13] = second compound 0.316 µM, first compound 0.0316 µM
# [14] = second compound 0.316 µM, first compound 0.1 µM
# [15] = second compound 0.316 µM, first compound 0.316 µM
# [16] = second compound 0.316 µM, first compound 1 µM
# [17] = second compound 0.316 µM, first compound 3.16 µM
# [18] = second compound 0.316 µM, first compound 10 µM
# [19] = second compound 1 µM, first compound 0.0316 µM
# [20] = second compound 1 µM, first compound 0.1 µM
# [21] = second compound 1 µM, first compound 0.316 µM
# [22] = second compound 1 µM, first compound 1 µM
# [23] = second compound 1 µM, first compound 3.16 µM
# [24] = second compound 1 µM, first compound 10 µM
# [25] = second compound 3.16 µM, first compound 0.0316 µM
# [26] = second compound 3.16 µM, first compound 0.1 µM
# [27] = second compound 3.16 µM, first compound 0.316 µM
# [28] = second compound 3.16 µM, first compound 1 µM
# [29] = second compound 3.16 µM, first compound 3.16 µM
# [30] = second compound 3.16 µM, first compound 10 µM
# [31] = second compound 10 µM, first compound 0.0316 µM
# [32] = second compound 10 µM, first compound 0.1 µM
# [33] = second compound 10 µM, first compound 0.316 µM
# [34] = second compound 10 µM, first compound 1 µM
# [35] = second compound 10 µM, first compound 3.16 µM
# [36] = second compound 10 µM, first compound 10 µM
# 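Also: spheroids exposed to drugs for seven days before viability read.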
# 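For viability, T/C in this document: 100% = DMSO vehicle control wells.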
smiles,measurement,setting,value
O=C(Nc1ccc(O)c(NS(=O)(=O)c2ccc(F)cc2)c1)c1ccc(-c2ccccc2)cc1 + COC1C(OC(N)=O)C(O)C(Oc2ccc3c(O)c(NC(=O)c4ccc(O)c(CC=C(C)C)c4)c(=O)oc3c2C)OC1(C)C,IC50,second compound 0.0316 µM,> 10 µM
same,IC50,second compound 0.1 µM,> 10 µM
same,IC50,second compound 0.316 µM,> 10 µM
same,IC50,second compound 1 µM,> 10 µM
same,IC50,second compound 3.16 µM,> 10 µM
same,IC50,second compound 10 µM,> 10 µM
same,"viability, T/C",[1],77.9%
same,"viability, T/C",[2],134%
same,"viability, T/C",[3],107%
same,"viability, T/C",[4],102%
same,"viability, T/C",[5],89.1%
same,"viability, T/C",[6],66.7%
same,"viability, T/C",[7],115%
same,"viability, T/C",[8],97.3%
same,"viability, T/C",[9],86.5%
same,"viability, T/C",[10],97%
same,"viability, T/C",[11],90.8%
same,"viability, T/C",[12],72.4%
same,"viability, T/C",[13],95.3%
same,"viability, T/C",[14],97.9%
same,"viability, T/C",[15],102%
same,"viability, T/C",[16],75.9%
same,"viability, T/C",[17],93.3%
same,"viability, T/C",[18],73.6%
same,"viability, T/C",[19],106%
same,"viability, T/C",[20],109%
same,"viability, T/C",[21],96.2%
same,"viability, T/C",[22],93%
same,"viability, T/C",[23],116%
same,"viability, T/C",[24],77%
same,"viability, T/C",[25],105%
same,"viability, T/C",[26],93.3%
same,"viability, T/C",[27],85.2%
same,"viability, T/C",[28],109%
same,"viability, T/C",[29],87.6%
same,"viability, T/C",[30],75.2%
same,"viability, T/C",[31],145%
same,"viability, T/C",[32],99.7%
same,"viability, T/C",[33],128%
same,"viability, T/C",[34],84.4%
same,"viability, T/C",[35],97.2%
same,"viability, T/C",[36],67.6%
O=c1[nH]cc(F)c(=O)[nH]1 + Nc1ccc(C#CCN(C(=O)Cc2ncc(C(F)(F)F)cc2C(F)(F)F)c2ccc(F)cc2)nn1,IC50,second compound 0.0316 µM,> 10 µM
same,IC50,second compound 0.1 µM,> 10 µM
same,IC50,second compound 0.316 µM,> 10 µM
same,IC50,second compound 1 µM,> 10 µM
same,IC50,second compound 3.16 µM,> 10 µM
same,IC50,second compound 10 µM,> 10 µM
same,"viability, T/C",[1],83%
same,"viability, T/C",[2],88.5%
same,"viability, T/C",[3],87.4%
same,"viability, T/C",[4],68.5%
same,"viability, T/C",[5],62.7%
same,"viability, T/C",[6],48.8%
same,"viability, T/C",[7],101%
same,"viability, T/C",[8],92.9%
same,"viability, T/C",[9],82.1%
same,"viability, T/C",[10],66.3%
same,"viability, T/C",[11],60.7%
same,"viability, T/C",[12],53.4%
same,"viability, T/C",[13],81.5%
same,"viability, T/C",[14],74.1%
same,"viability, T/C",[15],88.9%
same,"viability, T/C",[16],68.4%
same,"viability, T/C",[17],55.8%
same,"viability, T/C",[18],56.5%
same,"viability, T/C",[19],103%
same,"viability, T/C",[20],79.7%
same,"viability, T/C",[21],104%
same,"viability, T/C",[22],68.9%
same,"viability, T/C",[23],55%
same,"viability, T/C",[24],61%
same,"viability, T/C",[25],92.2%
same,"viability, T/C",[26],85.8%
same,"viability, T/C",[27],86.6%
same,"viability, T/C",[28],62.1%
same,"viability, T/C",[29],61%
same,"viability, T/C",[30],53.7%
same,"viability, T/C",[31],125%
same,"viability, T/C",[32],101%
same,"viability, T/C",[33],91.8%
same,"viability, T/C",[34],58.3%
same,"viability, T/C",[35],52.4%
same,"viability, T/C",[36],56.7%
